Where two headings read alike, the source gives them in different places.
How the values were obtained:
[1] = Phase 1 trial: plasma pharmacokinetics of TSR-011 IR (LC-MS/MS, noncompartmental analysis); assay type: in vivo, human
Experimental: To evaluate PK and establish the RP2D, blood samples were collected from all patients in the phase 1 dose-escalation trial at daily doses of 30–480 mg.
Plasma samples were processed through a Biotage (Uppsala, Sweden) ISOLUTE SLE + 200 μL of a 96-well-supported liquid extraction plate. […] The validated range was 0.87–433.25 nmol/L. The assay interbatch precision, expressed as percent coefficients of variation, ranged from 6.6 to 11.7%, and the interbatch accuracy, expressed as percent bias, ranged from –4.7 to 0.5%.
PK parameters were calculated using noncompartmental analysis (Phoenix WinNonlin version 7.0, Pharsight Corporation, Mountain View, CA, USA).

[2] = Experimental: During the phase 1 trial, all patients were monitored by ECGs as part of safety evaluations. […] Cardiac function (QT, Bazett-corrected QT formula, Fridericia-corrected QT formula [QTcF], PR, QRS, RR and heart rate) was evaluated by a 12-lead ECG with triplicate readouts at scheduled time points, along with changes from baseline to each scheduled time point.
All the ΔQTcF data with matching drug concentration values were used for the analysis.

ALK-positive tumours = assay: Phase 1 trial: clinical activity, tumour response by RECIST 1.1; assay type: in vivo, human; conditions: for Best overall response: Complete response / Best overall response: Progressive disease / Best overall response: Stable disease / Objective response: Complete response + partial response / Best overall response: Partial response: ALK-positive NSCLC, 40 mg every 8 hours; for Best overall response: Partial response: confirmed and unconfirmed
Experimental: The overall tumour response in all patients with measurable disease was evaluated, using Response Evaluation Criteria in Solid Tumors, version 1.1,[16] completed at times of radiologic assessment at weeks 4 and 8 after dosing and every 8 weeks thereafter. For patients without measurable disease at study entry, radiologic assessment was done as per investigator discretion.
While tumour response data were collected from 66 patients, here, we present response data only for patients with ALK-positive tumour samples (n = 22) receiving the RP2D (40 mg Q8h).

hERG [3] = target: T1, hERG (Homo sapiens, UniProt Q12809); assay: hERG in vitro test, displacement of dofetilide binding
T1 sequence (Q12809 whole entry): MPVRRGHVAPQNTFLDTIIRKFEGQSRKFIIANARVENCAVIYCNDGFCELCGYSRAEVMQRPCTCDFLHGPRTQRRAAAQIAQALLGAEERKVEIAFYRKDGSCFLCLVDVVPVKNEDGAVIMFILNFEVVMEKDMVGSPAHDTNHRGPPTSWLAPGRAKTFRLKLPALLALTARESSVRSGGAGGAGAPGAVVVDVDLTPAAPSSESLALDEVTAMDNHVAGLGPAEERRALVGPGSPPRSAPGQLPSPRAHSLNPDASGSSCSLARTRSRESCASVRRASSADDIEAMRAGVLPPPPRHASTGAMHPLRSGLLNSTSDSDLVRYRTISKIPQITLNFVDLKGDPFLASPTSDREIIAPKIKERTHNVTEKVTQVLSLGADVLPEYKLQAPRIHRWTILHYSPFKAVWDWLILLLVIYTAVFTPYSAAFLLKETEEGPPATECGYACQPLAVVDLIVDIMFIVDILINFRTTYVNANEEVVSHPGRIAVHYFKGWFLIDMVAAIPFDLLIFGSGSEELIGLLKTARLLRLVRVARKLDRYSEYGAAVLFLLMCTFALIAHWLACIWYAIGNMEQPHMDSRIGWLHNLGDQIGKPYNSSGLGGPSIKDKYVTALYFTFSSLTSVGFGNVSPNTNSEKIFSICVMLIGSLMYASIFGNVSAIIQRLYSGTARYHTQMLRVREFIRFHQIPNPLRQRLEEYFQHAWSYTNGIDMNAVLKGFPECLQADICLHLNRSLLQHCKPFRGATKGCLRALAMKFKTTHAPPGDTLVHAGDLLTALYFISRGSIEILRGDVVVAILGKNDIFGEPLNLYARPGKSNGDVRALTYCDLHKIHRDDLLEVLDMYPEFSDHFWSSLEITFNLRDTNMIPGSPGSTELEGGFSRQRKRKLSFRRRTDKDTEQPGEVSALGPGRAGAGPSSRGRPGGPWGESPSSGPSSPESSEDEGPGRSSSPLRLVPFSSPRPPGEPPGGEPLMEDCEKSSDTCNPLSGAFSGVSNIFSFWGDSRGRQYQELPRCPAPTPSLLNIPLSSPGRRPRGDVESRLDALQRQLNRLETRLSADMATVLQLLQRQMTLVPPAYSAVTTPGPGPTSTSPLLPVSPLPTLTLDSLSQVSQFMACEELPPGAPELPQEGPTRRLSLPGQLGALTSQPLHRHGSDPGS

hERG [4] = target: T1, hERG; assay: hERG channel functional assay; assay type: biochemical; conditions: read-out: IC50, inhibition of the hERG channel, functional assay
hNav1.5 = target: T2, hNav1.5 (Homo sapiens, UniProt Q14524); assay: hNav1.5 expressed in HEK-293 cells; assay type: cell-based; conditions: read-out: IC50 against hNav1.5
T2 construct: expressed in transfected cells; host or cells: HEK-293
T2 sequence (Q14524 whole entry): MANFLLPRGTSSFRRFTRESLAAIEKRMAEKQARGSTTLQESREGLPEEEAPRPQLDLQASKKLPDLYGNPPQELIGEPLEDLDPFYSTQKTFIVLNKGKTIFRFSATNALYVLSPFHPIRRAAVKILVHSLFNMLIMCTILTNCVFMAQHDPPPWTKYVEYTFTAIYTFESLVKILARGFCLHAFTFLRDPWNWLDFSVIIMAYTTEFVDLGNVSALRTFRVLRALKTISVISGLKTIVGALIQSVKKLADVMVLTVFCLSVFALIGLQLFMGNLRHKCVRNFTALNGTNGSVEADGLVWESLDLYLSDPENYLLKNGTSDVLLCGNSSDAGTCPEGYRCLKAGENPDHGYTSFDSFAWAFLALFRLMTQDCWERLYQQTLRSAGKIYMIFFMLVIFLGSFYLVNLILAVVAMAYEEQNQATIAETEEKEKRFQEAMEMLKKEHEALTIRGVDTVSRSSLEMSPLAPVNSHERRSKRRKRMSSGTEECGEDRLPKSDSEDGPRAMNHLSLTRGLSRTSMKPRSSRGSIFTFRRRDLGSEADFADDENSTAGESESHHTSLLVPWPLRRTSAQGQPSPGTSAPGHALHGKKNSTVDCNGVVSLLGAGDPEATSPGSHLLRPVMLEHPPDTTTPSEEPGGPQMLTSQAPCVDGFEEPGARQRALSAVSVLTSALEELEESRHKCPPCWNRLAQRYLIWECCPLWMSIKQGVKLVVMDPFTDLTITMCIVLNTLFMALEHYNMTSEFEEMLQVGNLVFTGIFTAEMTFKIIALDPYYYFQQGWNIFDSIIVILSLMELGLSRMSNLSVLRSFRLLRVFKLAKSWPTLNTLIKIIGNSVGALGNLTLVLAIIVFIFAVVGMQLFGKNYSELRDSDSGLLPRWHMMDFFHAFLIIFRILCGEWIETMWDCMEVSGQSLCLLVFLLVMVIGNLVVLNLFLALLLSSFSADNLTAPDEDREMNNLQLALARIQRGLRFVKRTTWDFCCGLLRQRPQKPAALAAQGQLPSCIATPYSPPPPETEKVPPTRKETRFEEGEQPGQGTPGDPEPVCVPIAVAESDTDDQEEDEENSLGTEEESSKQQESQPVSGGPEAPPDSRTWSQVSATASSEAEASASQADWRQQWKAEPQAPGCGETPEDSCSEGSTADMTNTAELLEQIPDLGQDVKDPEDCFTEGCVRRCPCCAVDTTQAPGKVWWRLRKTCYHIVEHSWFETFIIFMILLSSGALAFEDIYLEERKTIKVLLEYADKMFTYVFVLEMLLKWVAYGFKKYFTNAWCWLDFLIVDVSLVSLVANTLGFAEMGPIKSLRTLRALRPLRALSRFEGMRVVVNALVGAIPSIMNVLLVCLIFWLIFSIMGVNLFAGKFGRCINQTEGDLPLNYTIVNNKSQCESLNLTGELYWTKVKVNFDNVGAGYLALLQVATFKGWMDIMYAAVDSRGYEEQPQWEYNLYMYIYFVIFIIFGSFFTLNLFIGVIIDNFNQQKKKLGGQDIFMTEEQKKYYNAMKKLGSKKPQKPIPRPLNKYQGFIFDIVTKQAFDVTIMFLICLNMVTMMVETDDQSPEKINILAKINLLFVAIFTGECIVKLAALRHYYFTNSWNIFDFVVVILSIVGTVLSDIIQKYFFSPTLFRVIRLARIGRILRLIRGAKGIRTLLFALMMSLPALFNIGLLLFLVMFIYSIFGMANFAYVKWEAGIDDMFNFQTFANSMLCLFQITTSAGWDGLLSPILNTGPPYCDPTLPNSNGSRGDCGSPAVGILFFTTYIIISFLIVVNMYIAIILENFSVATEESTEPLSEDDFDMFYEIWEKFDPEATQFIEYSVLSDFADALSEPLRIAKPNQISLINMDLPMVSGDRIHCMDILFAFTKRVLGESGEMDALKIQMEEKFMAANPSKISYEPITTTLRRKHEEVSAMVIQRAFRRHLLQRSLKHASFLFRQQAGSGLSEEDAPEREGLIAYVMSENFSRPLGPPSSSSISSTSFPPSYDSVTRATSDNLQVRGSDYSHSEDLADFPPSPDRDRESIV

CYP2D6 = CYP2D6 (Homo sapiens, UniProt P10635); assay: biochemical
Chain of CYP2D6 (P10635 whole entry): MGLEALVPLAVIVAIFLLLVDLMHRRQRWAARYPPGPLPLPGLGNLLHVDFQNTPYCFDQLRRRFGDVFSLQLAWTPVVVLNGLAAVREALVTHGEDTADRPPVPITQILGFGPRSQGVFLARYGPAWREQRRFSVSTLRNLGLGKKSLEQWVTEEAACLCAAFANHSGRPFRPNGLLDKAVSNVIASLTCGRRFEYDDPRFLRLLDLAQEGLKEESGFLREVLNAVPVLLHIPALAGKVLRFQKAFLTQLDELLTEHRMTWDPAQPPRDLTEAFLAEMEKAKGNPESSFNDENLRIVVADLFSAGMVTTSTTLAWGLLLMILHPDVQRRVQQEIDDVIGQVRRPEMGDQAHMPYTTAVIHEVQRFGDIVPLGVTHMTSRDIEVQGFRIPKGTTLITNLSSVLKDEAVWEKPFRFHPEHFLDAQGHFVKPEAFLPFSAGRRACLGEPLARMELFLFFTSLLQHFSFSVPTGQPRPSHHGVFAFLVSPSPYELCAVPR

[5] = single dose, over the 16-fold increase in dose (30–480 mg)
[6] = steady state, over the sixfold increase in dose (80–480 mg)
[7] = Prior ALK inhibitor-treated (n = 8)
[8] = ALK-positive patients (n = 22), 40 mg Q8h
[9] = previously treated with an ALK inhibitor, RP2D

SMILES: CC(C)NC(=O)[C@H]1CC[C@@H](n2c(NC(=O)c3ccc(F)cc3)nc3ccc(CN4CCC(C(C)(C)O)CC4)cc32)CC1 [TSR-011]
- Highest concentration observed ([1]; 40-mg IR TID cohort): 2599.50 nmol/L
- Mean Ctrough ([1]; 40-mg TID (Q8h), steady state day 29): 351.38 nM
- Cmax at 696 h ([1]; human, plasma, po, 40-mg TID (Q8h), steady state day 29): 528 nM
- half-life ([1]; human, plasma, po, cycle 1/day 1, across cohorts): 7 to 27 h
- Vd/F ([1]; human, plasma, po, cycle 1/day 1, across cohorts, read-out: Apparent volume of distribution): 188 to 1620 L
- Cmax ([1]; human, plasma, cycle 2/day 1, daily oral 80–480 mg): 447 to 3330 nM
- Tmax ([1]; human, plasma, cycle 2/day 1, daily oral 80–480 mg, read-out: Median tmax): 2 to 6 h
- Increase in geometric mean AUC from 0 to 24 h [1, 5]: 42 fold
- Increase in geometric mean Cmax [1, 5]: 41 fold
- Increase in exposure for AUC from time 0 to the last measurable concentration [1, 6]: 2.9 fold
- Increase in exposure for Cmax [1, 6]: 3.3 fold
- Mean ΔQTcF ([2]; 120 mg QD (n = 1)): 19 ms
- Upper bound of the two-sided 90% CI of mean ΔQTcF ([2]; 120 mg QD (n = 1)): 27 ms
- Frequency of drug-related QTc prolongation ([2]; 40-mg TID (Q8h) RP2D): 9.7%
- Patients with ΔQTc of > 60 ms and QTc > 500 ms (grade 3 event) ([2]; 40-mg TID (Q8h), one in 27 patients): 3.7%
- Mean ΔQTcF ([2]; 40-mg TID cohort (n = 27), 90% CI 9.75–12.00 ms): 11 ms
- ΔQTcF ([2]; QD doses at 240 mg (n = 3), 320 mg (n = 3) and 480 mg (n = 4)): > 20 ms
- Slope of linear regression, plasma concentration versus ΔQTcF ([2]; all dose groups, 95% CI 0.01970–0.02747, P < 0.0001): 0.02358
- Mean ΔQTcF ([2]; fractionated BID (Q12h) and TID (Q8h) regimens, cumulative daily doses of 60 and 120 mg, all four regimens): below 20 ms
- Frequency of drug-related QTc prolongation ([2]; overall safety population): 16.7%
- Partial response rate (ALK-positive tumours; ALK inhibitor-naive, RP2D): 42.9%
- Stable disease, patients (ALK-positive tumours; ALK inhibitor-naive, RP2D): 57.1%
- Objective response rate (ALK-positive tumours; ALK pre-treated setting, RP2D): 12.5%
- Best overall response: Complete response (ALK-positive tumours; ALK inhibitor-naïve (n = 14)): 0 n (%)
- Best overall response: Progressive disease (ALK-positive tumours; ALK inhibitor-naïve (n = 14)): 0 n (%)
- Best overall response: Stable disease (ALK-positive tumours; ALK inhibitor-naïve (n = 14)): 8 (57.1) n (%)
- Objective response: Complete response + partial response (ALK-positive tumours; ALK inhibitor-naïve (n = 14)): 6 (42.9) n (%)
- Best overall response: Partial response (ALK-positive tumours; ALK inhibitor-naïve (n = 14)): 6 (42.9) n (%)
- Best overall response: Complete response (ALK-positive tumours; All patients (N = 22)): 0 n (%)
- Best overall response: Progressive disease (ALK-positive tumours; All patients (N = 22)): 1 (4.5) n (%)
- Best overall response: Stable disease (ALK-positive tumours; All patients (N = 22)): 14 (63.6) n (%)
- Objective response: Complete response + partial response (ALK-positive tumours; All patients (N = 22)): 7 (31.8) n (%)
- Best overall response: Partial response (ALK-positive tumours; All patients (N = 22)): 7 (31.8) n (%)
- Best overall response: Complete response (ALK-positive tumours; [7]): 0 n (%)
- Best overall response: Progressive disease (ALK-positive tumours; [7]): 1 (12.5) n (%)
- Best overall response: Stable disease (ALK-positive tumours; [7]): 6 (75.0) n (%)
- Objective response: Complete response + partial response (ALK-positive tumours; [7]): 1 (12.5) n (%)
- Best overall response: Partial response (ALK-positive tumours; [7]): 1 (12.5) n (%)
- Complete response (ALK-positive tumours; [8]): No ALK-positive patient had a complete response
- Stable disease, number of patients (ALK-positive tumours; [8]): 14
- Partial response, number of patients (ALK-positive tumours; ALK-positive patients (n = 22), 40 mg Q8h, six confirmed, one unconfirmed): seven
- Response of a patient with neuroblastoma harbouring ALK mutation (R1275Q) (ALK-positive tumours; one patient): did not respond
- Partial response rate (ALK-positive tumours; [9]): 12.5%
- Stable disease, patients (ALK-positive tumours; [9]): 75.0%
- IC50 (hERG [3]): 2.3 µM
- IC50 (hERG [4]): 0.172 µM
- IC50 (hNav1.5): 7.6 µM
- IC50 (CYP2D6): 32.9 µM
